The target of one assay is T1, O-GlcNAcase (Homo sapiens, UniProt O60502).
T1 sequence (O60502 1-916): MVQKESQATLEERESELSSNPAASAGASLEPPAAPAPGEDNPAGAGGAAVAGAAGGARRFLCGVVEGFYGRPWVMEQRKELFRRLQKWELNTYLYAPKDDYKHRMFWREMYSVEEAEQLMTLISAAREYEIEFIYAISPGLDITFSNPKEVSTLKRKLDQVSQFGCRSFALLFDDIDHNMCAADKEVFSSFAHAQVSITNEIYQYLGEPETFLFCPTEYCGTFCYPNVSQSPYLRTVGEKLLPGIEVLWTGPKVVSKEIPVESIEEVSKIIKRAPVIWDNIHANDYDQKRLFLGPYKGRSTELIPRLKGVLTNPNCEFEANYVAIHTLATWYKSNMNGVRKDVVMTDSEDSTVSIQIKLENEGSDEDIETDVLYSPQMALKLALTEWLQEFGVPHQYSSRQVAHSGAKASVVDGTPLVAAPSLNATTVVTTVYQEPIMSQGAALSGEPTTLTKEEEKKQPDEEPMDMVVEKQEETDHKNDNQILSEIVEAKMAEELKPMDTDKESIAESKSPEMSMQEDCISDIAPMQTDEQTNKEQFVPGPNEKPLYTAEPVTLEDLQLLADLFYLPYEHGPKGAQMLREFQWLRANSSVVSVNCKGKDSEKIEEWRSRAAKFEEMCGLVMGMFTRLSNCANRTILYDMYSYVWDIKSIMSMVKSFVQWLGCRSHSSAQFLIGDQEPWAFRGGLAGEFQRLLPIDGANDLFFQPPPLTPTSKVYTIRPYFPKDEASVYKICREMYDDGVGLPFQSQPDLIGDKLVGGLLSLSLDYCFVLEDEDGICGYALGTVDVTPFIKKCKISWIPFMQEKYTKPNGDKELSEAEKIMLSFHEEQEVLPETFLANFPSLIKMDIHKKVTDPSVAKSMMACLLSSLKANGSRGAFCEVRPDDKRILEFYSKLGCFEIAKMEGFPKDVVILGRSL
Put plainly: Assay for determination of K1 values for inhibition of O-GlcNAcase activity. The assay is classed as biochemical. The note with it: pNP-GlcNAc 0.5 mM, PBS buffer pH 7.4, 37° C., Dixon plots. The protocol: Assay for Determination of […] for Inhibition of O-GlcNAcase Activity Experimental procedure for kinetic analyses: Enzymatic reactions were carried out in PBS buffer (pH 7.4) using pNP-GlcNAc as a substrate (0.5 mM) and monitored continuously at 37° C. at 400 nm using a Cary 3E UV-VIS spectrophotometer equipped with a Peltier temperature controller. Reactions were pre-heated in a 500 μl, quartz cuvette for approximately 5 minutes followed by addition of 10 μL enzyme via syringe (final enzyme concentration 0.002 mg/mL). Reaction velocities were determined by linear regression of the linear region of the reaction progress curve between the first and third minutes. An inhibitor concentration range of ⅕ to 5 times K1 was used in each case. […] All K1 values are determined using linear regression of Dixon plots.

A further assay relates to 3T3-L1 cells. Kind of assay: Western blot of cellular levels of O-GlcNAc-modified proteins in 3T3-L1 cells. Type of assay: cell-based. The note with it: 100 μM, 16 hours, anti-O-GlcNAc mAb CTD110.6, compared to control. How it is done:
FIGS. 1A-B show Western blots of proteins from 3T3-L1 cells cultured for 16 hours in the presence or absence of 100 μM of Compound 1 (Table 1). Incubation of 3T3-L1 cells with Compound 1 causes an increase in cellular levels of O-GlcNAc-modified proteins; plus signs (“+”) indicate presence of Compound 1, while minus signs (“−”) indicate absence of Compound 1. FIG. 1A: Western blot analysis of cellular levels of O-GlcNAc-modified proteins using anti-O-GlcNAc MAb CTD 110.6 followed by an anti-mouse IgG-HRP conjugate.
Western Blot Analyses: 3T3-L1 adipocytes were treated with Compound 1 at 100 μM for 16 hours. Cells were harvested by adding 400 μL of 1% SDS with 50 mM beta-ME, boiling this for 10 minutes, using these lysates in subsequent Western blots. Briefly, samples were separated by SDS-PAGE (10% gels), transferred to nitrocellulose membrane (Bio-Rad), blocked for one hour at room temperature (RT) with 1% bovine serum albumin (BSA) in PBS containing 0.1% Tween-20 (PBS-T) and then subsequently probed with the appropriate primary antibody delivered in 1% BSA in PBS-T for overnight at 4° C. […]
(In general: In western blotting, separated proteins are transferred to a membrane and probed.)

Entries after “also recorded” stand apart in the source; their conditions may differ.

The text below walks through data of patent US8541441B2, “Selective glycosidase inhibitors and uses thereof” (Simon Fraser University, priority 2008, dated 2013).

For orientation: Ki means a dissociation constant, usually derived from enzyme kinetics or from competition with a known ligand.

In turn, `CC(=O)N[C@H]1CN2CC[C@H](O)[C@@H]2[C@@H](O)[C@@H]1O` [Compound 1] returned an inhibitory constant (Ki) on O-GlcNAcase of 670 nM. In the assay with 3T3-L1 cells, the “cellular levels of O-GlcNAc-modified proteins” value is reported as “Marked increases; also recorded: increase”.
